# From patent US20250113823A1, “Arthropod Control Compositions” (priority 2022, published 2025)
# Key:
# Assay type in all cases: in vivo
# Aedes aegypti [1] = assay: Double (dual) chamber assay, spatial repellence; settings: after 30 min of injection
# Description: FIG. 1: Percentage of mosquitoes Aedes aegypti escaping over time the chamber treated with a stimulus. The four stimuli were the solvent propan-1,2-diol (grey triangles and dotted line), N,N-diethyl-meta-toluamide (medium grey diamonds), 2,6-dimethoxy-4-methylphenol (light gray squares) and 1,2,3-trimethoxy-5-propylbenzene (black circles). Each stimulus was injected during 40 min thanks to a forced evaporation system in the treated chamber containing the mosquitoes, causing their movement toward the untreated refuge chamber. Each point represents the mean number of mosquitoes in the untreated chamber (n=57, 6, 4 and 4 respectively)±SD at 10 min intervals.
# The goal of this assay was to reproduce at a smaller scale the validation test for spatial repellent as described in WHO (2013; ISBN 978 92 4 150502 4).
# The assay consists of a transparent cage (1200×755×700 mm; ˜0.63 m^3) covered by white paper. This cage is divided in two chambers of equal dimensions by a plasticized paper wall with square opening (200×200 mm) situated in the middle of the wall. At the beginning of the experiment, about 40 two-weeks old female Aedes aegypti mosquitoes are placed in the right chambers. Once the mosquitoes are settled inside this chamber (>5 min), the door between the chambers is opened. Then the stimulus is introduced into the mosquito chamber through a L-shape Teflon tube (40 mm) placed in the middle of the right Plexiglas wall. The stimulus is dispensed thanks to a Forced Evaporation System (Chappuis et al, 2015, DOI: 10.1021/acs.est.5b00692) at a rate of 0.1 mL/min in a nitrogen flow of 1 L/min, blended in a humid air flow of 9L/min before being carried to the L-shape Teflon tube. An air sucking system (˜150 L/min) is placed above the wall opening, between the two chambers (100 mm Ø), preventing the untreated chamber from being contaminated by the stimulus and limiting the stimulus accumulation in the treated chamber. […] Ten, 20, 30 and 40 minutes after the start of the stimulus injection, the number of mosquitoes that have moved to the untreated chamber is manually counted.
# Aedes aegypti [2] = assay: Free flying room assay, spatial repellence with human volunteer
# Text: The goal of this large-scale test is to assess the propensity of stimulus released in the air to protect a human volunteer by limiting the mosquito presence in a protected space and the number of landing/biting. The protocol used to carry the test is following the guidelines indicated in WHO (2013; ISBN 978 92 4 150502 4).
# A group of 50 Aedes aegypti female mosquitoes were introduced in one chamber of 25 m^3 one hour before the test started. The product was applied in the other chamber of 25 m^3 (“treated chamber”) and let evaporate for 30 minutes. The test started when the window separating the two chambers was opened in a tilt-on manner for another 30 minutes. Twenty minutes after the window was opened, a volunteer entered in the “treated chamber” and sat down for 10 minutes, exposing the forearm for the last 3 minutes to determine the probing activity (Protective Efficacy). Then, the connecting window was closed and the number of mosquitoes in each of the chambers was counted (Spatial Repellency). The negative controls were carried out following the same procedure but without the application of the stimulus. Three replicates of each treatment and of the negative control were conducted with three different volunteers.
# Aedes aegypti [3] = assay: Arm-in-cage test on human volunteers; settings: arm treated with 20%, three human volunteers
# Description: The controlling effect, repellence & spatial repellence, according to the present invention is also determined according to an arm in the box method adapted from the WHO Guidelines for efficacy testing of mosquito repellents for human skin (WHO/CDS/NTD/WHOPES/2009.4). The readiness of 100 hungry female mosquitoes A. aegypti to a test substance is assessed by comparing the results of an untreated arm to a treated in when inserted into the cage (40×40×40 cm) for 30 seconds (negative control) three times. Further information is provided in the accompanying examples.
# The Arm in the box method was adapted from the WHO Guidelines for efficacy testing of mosquito repellents for human skin (WHO/CDS/NTD/WHOPES/2009.4). The readiness of 100 hungry female mosquitoes A. aegypti to probe is assessed by inserting the untreated arm of human volunteers into the cage (40×40×40cm) for 30 seconds (negative control) in order to determine probing activity. Then, the product is applied onto the skin of the forearm of the human volunteer (1 mL per 600 cm^2) and after 5 minutes, this arm is inserted into the cage and exposed for 3 minutes. The assay take place in temperature (27±2° C.) and humidity (80±10% RH) regulated room on three different human volunteers.
structure (smiles),measurement,setting,value
"CCCc1cc(OC)c(OC)c(OC)c1 [compound 1975, 1,2,3-trimethoxy-5-propylbenzene]",plateau of mosquitoes moved to the untreated chamber,Aedes aegypti [1],~54%
same,mosquitoes landed on the volunteer,"Aedes aegypti [2]; in 3 minutes, negative control 60.7±2.5 landings",15.7±3.1
same,Spatial Repellence,"Aedes aegypti [2]; large scale assay, 25 m3 chambers, compound released in the air",43.9 ± 9.1%
same,Protective efficacy,"Aedes aegypti [2]; large scale assay, probing on volunteer forearm, 3 minutes",74.2 ± 4.4%
same,mosquito entered the treated chamber,Aedes aegypti [2]; negative control 82.5±3.7%,46.3±7.5%
same,reduction of the number of mosquito Aedes aegypti landings,Aedes aegypti [3],99.4%±0.4%
